Results taken from publication PMC8296573, “Synthesis and Biological Evaluation of Fingolimod Derivatives as Antibacterial Agents” (ACS Omega, 2021).
Values after ≈ are worked out from the molar mass of the structure shown. Where two headings read alike, the source gives them in different places.

Columns and labels:
S. aureus ATCC 25923 [1] = experiment: Antibacterial activity, post-exposure on preformed 18-h-old biofilms; format: cell-based, Staphylococcus aureus; conditions: ± SD; for inhibition at 25 µM / inhibition at 50 µM / inhibition at 100 µM / inhibition at 200 µM: Staphylococcus aureus; for inhibition at 25 µM: ATCC25923, 25 µM; for inhibition at 50 µM: ATCC25923, 50 µM; for inhibition at 100 µM: ATCC25923, 100 µM; for inhibition at 200 µM: ATCC25923, 200 µM
Method: For the post-exposure experiment, bacteria were grown with no compounds in the same conditions for 18 h, after which the media was changed, and compounds were added on the preformed biofilms. The plates were then incubated in the same conditions for an additional 24 h before proceeding to the staining assays.
(§1) The resazurin staining was performed according to the protocol previously optimized with a few modifications.[46] Briefly, the planktonic solution was first transferred into a new 96-well plate and the OD of the planktonic solution was measured using a Varioskan LUX Multimode microplate reader (Thermo Scientific, Vantaa, Finland). Then, 10 μL of a 400 μM resazurin (R7017, Sigma-Aldrich, St. Louis, MO) diluted in phosphate-buffered saline (PBS) (Thermo Fisher Scientific, MA) was added to the wells (for a final resazurin concentration of 20 μM). The plate was incubated in the dark with shaking (220 rpm) for about 3–10 min at room temperature with S. aureus and A. baumannii (until the bacteria controls turned pink) or for 20 min at 37 °C with P. aeruginosa. Fluorescence was measured at λex = 560 nm and λem = 590 nm using the top optics of the Varioskan LUX Multimode microplate reader. The planktonic plate was then discarded. The original challenge plate containing the biofilms was washed once with PBS, and 200 μL of a 20 μM resazurin solution was added to the wells. The plate was incubated in the dark at 37 °C with shaking (220 rpm) for 30 min with S. aureus, 60 min with A. baumannii, and 90 min with P. aeruginosa. Fluorescence was measured as described for the planktonic solution. The biofilms were next treated with crystal violet staining.
(§2) After removing the resazurin solution from the plate, biofilms were fixed with ethanol 100% for 15 min at room temperature. Ethanol was then removed, and the biofilms were left to air-dry completely at RT. Crystal violet, diluted to 1:100 in deionized water from the 2.3% commercial solution (HT90132, Sigma-Aldrich, St. Louis, MO), was added to the wells and, after a 5 min incubation with the dye, the biofilms were washed twice with deionized water and left to air-dry for about 10 min. The dye was solubilized in ethanol 100% for 1 h, and absorbance was measured at 595 nm using a Multiskan Sky microplate spectrophotometer (Thermo Scientific, Vantaa, Finland).

S. aureus ATCC 25923 [2] = experiment: Antibacterial activity, pre-exposure (planktonic cells and biofilm formation); format: cell-based, Staphylococcus aureus; conditions: for MIC / inhibition at 5 µM / inhibition at 10 µM / inhibition at 15 µM / inhibition at 25 µM: Staphylococcus aureus, ATCC25923; for inhibition at 5 µM / inhibition at 10 µM / inhibition at 15 µM / inhibition at 25 µM / Average inhibition %, biofilms viability / Average inhibition %, planktonic cells viability: pre-exposure, ± SD
Method: (§3) The antimicrobial activity was assessed in a similar way for the initial screening and the dose–response evaluation against different bacterial strains. With the exception of the post-exposure experiment, the compounds were added to the wells along with the bacteria to test the ability of compounds to prevent bacterial growth and biofilm formation (pre-exposure). The compounds were diluted in DMSO and plated directly in 96-well plates before adding the bacterial culture, and plates were incubated for 18 h under aerobic conditions at 37 °C with shaking (220 rpm). The antibacterial activity of the compounds was assessed on planktonic cells and biofilms separately using two different measurements for each: optical density (turbidity) and resazurin reduction (viability) on planktonic cells and resazurin followed by a crystal violet staining assay (total biomass) on biofilms, as described in the following sections.
as §1, §2

P. aeruginosa ATCC 9027 = experiment: Antibacterial activity, pre-exposure; format: cell-based, Pseudomonas aeruginosa; conditions: for Average inhibition %, biofilms viability / Average inhibition %, planktonic cells viability / inhibition at 50 µM / inhibition at 100 µM / inhibition at 150 µM / inhibition at 200 µM: P. aeruginosa ATCC 9027, pre-exposure, ± SD; for inhibition at 50 µM / inhibition at 100 µM / inhibition at 150 µM / inhibition at 200 µM: Pseudomonas aeruginosa, ATCC9027
Method: as §3, §1, §2

A. baumannii NCTC 13423 = experiment: Antibacterial activity, pre-exposure; format: cell-based, Acinetobacter baumannii; conditions: for Average inhibition %, biofilms viability / Average inhibition %, planktonic cells viability / inhibition at 10 µM / inhibition at 15 µM / inhibition at 25 µM / inhibition at 50 µM: A. baumannii NCTC 13423, pre-exposure, ± SD; for inhibition at 10 µM / inhibition at 15 µM / inhibition at 25 µM / inhibition at 50 µM: Acinetobacter baumannii, NCTC13423
Method: as §3, §1, §2

[3] = read-out: Average inhibition %, biofilms biomass
[4] = read-out: Average inhibition %, planktonic cells turbidity
[5] = 10 µM, read-out: Average inhibition %, biofilms biomass
[6] = 10 µM, read-out: Average inhibition %, planktonic cells turbidity
[7] = 15 µM, read-out: Average inhibition %, biofilms biomass
[8] = 15 µM, read-out: Average inhibition %, planktonic cells turbidity
[9] = 25 µM, read-out: Average inhibition %, biofilms biomass
[10] = 25 µM, read-out: Average inhibition %, planktonic cells turbidity
[11] = 50 µM, read-out: Average inhibition %, biofilms biomass
[12] = 50 µM, read-out: Average inhibition %, planktonic cells turbidity

MIC (S. aureus ATCC 25923 [2]; lowest concentration with no visible growth (>90% inhibition of turbidity and viability of planktonic cells), 18 h, read-out: MIC S. aureus ATCC 25923): 25 to 100 µM (≈ 8.54 to 34.1 µg/mL) | MIC (S. aureus ATCC 25923 [2]; read-out: MIC (S. aureus)): 25 to 100 µM (≈ 8.54 to 34.1 µg/mL) | MIC P. aeruginosa ATCC 9027 (P. aeruginosa ATCC 9027; pre-exposure, Inactive = no activity up to 200 μM, > = some inhibition but no MIC reached): Inactive | MIC A. baumannii NCTC 13423 (A. baumannii NCTC 13423; pre-exposure, Inactive = no activity up to 50 μM, > = some inhibition but no MIC reached): Inactive
SMILES: CCCCCc1ccc(-c2ccc(CCC(N)(CO)CO)cc2)cc1 [Compound 15, 2-Amino-2-[2-(4′-pentyl-[1,1′-biphenyl]-4-yl)ethyl]propane-1,3-diol]
Average inhibition %, biofilms viability (S. aureus ATCC 25923 [1]; 25 µM): 19 ± 6.6% | Average inhibition %, planktonic cells viability (S. aureus ATCC 25923 [1]; 25 µM): 3.6 ± 6.3% | Average inhibition %, biofilms viability (S. aureus ATCC 25923 [1]; 50 µM): 30.8 ± 8.5% | Average inhibition %, planktonic cells viability (S. aureus ATCC 25923 [1]; 50 µM): 1.2 ± 2.1% | Average inhibition %, biofilms viability (S. aureus ATCC 25923 [1]; 100 µM): 31.9 ± 6.2% | Average inhibition %, planktonic cells viability (S. aureus ATCC 25923 [1]; 100 µM): 3.8 ± 6.6% | Average inhibition %, biofilms viability (S. aureus ATCC 25923 [1]; 200 µM): 38.7 ± 13.3% | Average inhibition %, planktonic cells viability (S. aureus ATCC 25923 [1]; 200 µM): 29.1 ± 25.2% | inhibition at 25 µM (S. aureus ATCC 25923 [1]; [3]): 34.9 ± 12.7% | inhibition at 25 µM (S. aureus ATCC 25923 [1]; [4]): 16.8 ± 10% | inhibition at 50 µM (S. aureus ATCC 25923 [1]; [3]): 44.9 ± 6.2% | inhibition at 50 µM (S. aureus ATCC 25923 [1]; [4]): 14.7 ± 13.4% | inhibition at 100 µM (S. aureus ATCC 25923 [1]; [3]): 43.6 ± 7.8% | inhibition at 100 µM (S. aureus ATCC 25923 [1]; [4]): 17.9 ± 1.1% | inhibition at 200 µM (S. aureus ATCC 25923 [1]; [3]): 45.5 ± 18.5% | inhibition at 200 µM (S. aureus ATCC 25923 [1]; [4]): 47.4 ± 13.9% | Initial screening result (active = at least 60% inhibition of planktonic cells and biofilm formation) (S. aureus ATCC 25923 [2]; 50 μM, S. aureus): active | inhibition at 5 µM (S. aureus ATCC 25923 [2]; 5 µM, read-out: Average inhibition %, biofilms biomass): 44.4 ± 15% | inhibition at 5 µM (S. aureus ATCC 25923 [2]; 5 µM, read-out: Average inhibition %, planktonic cells turbidity): 44.9 ± 12.3% | inhibition at 10 µM (S. aureus ATCC 25923 [2]; [5]): 68.5 ± 20.6% | inhibition at 10 µM (S. aureus ATCC 25923 [2]; [6]): 70.3 ± 19.8% | inhibition at 15 µM (S. aureus ATCC 25923 [2]; [7]): 75.8 ± 18.7% | inhibition at 15 µM (S. aureus ATCC 25923 [2]; [8]): 72.5 ± 23.2% | inhibition at 25 µM (S. aureus ATCC 25923 [2]; [9]): 70.7 ± 26.8% | inhibition at 25 µM (S. aureus ATCC 25923 [2]; [10]): 76.5 ± 19.4% | Average inhibition %, biofilms viability (S. aureus ATCC 25923 [2]; 5 µM): 42.5 ± 7.6% | Average inhibition %, planktonic cells viability (S. aureus ATCC 25923 [2]; 5 µM): 2.6 ± 4.5% | Average inhibition %, biofilms viability (S. aureus ATCC 25923 [2]; 10 µM): 71.3 ± 19.4% | Average inhibition %, planktonic cells viability (S. aureus ATCC 25923 [2]; 10 µM): 50.9 ± 46% | Average inhibition %, biofilms viability (S. aureus ATCC 25923 [2]; 15 µM): 70.4 ± 24.5% | Average inhibition %, planktonic cells viability (S. aureus ATCC 25923 [2]; 15 µM): 33.2 ± 57.6% | Average inhibition %, biofilms viability (S. aureus ATCC 25923 [2]; 25 µM): 79.3 ± 18.7% | Average inhibition %, planktonic cells viability (S. aureus ATCC 25923 [2]; 25 µM): 33.1 ± 57.3% | Average inhibition %, biofilms viability (P. aeruginosa ATCC 9027; 50 µM): 0 ± 0% | Average inhibition %, planktonic cells viability (P. aeruginosa ATCC 9027; 50 µM): 22.3 ± 2% | Average inhibition %, biofilms viability (P. aeruginosa ATCC 9027; 100 µM): 0 ± 0% | Average inhibition %, planktonic cells viability (P. aeruginosa ATCC 9027; 100 µM): 12 ± 14% | Average inhibition %, biofilms viability (P. aeruginosa ATCC 9027; 150 µM): 0.5 ± 0.8% | Average inhibition %, planktonic cells viability (P. aeruginosa ATCC 9027; 150 µM): 5.5 ± 6.3% | Average inhibition %, biofilms viability (P. aeruginosa ATCC 9027; 200 µM): 0 ± 0% | Average inhibition %, planktonic cells viability (P. aeruginosa ATCC 9027; 200 µM): 7.2 ± 6.3% | inhibition at 50 µM (P. aeruginosa ATCC 9027; [11]): 2.2 ± 2.2% | inhibition at 50 µM (P. aeruginosa ATCC 9027; [12]): 12.6 ± 9.1% | inhibition at 100 µM (P. aeruginosa ATCC 9027; 100 µM, read-out: Average inhibition %, biofilms biomass): 3.7 ± 3% | inhibition at 100 µM (P. aeruginosa ATCC 9027; 100 µM, read-out: Average inhibition %, planktonic cells turbidity): 11.3 ± 12.7% | inhibition at 150 µM (P. aeruginosa ATCC 9027; 150 µM, read-out: Average inhibition %, biofilms biomass): 4.4 ± 1.9% | inhibition at 150 µM (P. aeruginosa ATCC 9027; 150 µM, read-out: Average inhibition %, planktonic cells turbidity): 15.7 ± 13.7% | inhibition at 200 µM (P. aeruginosa ATCC 9027; 200 µM, read-out: Average inhibition %, biofilms biomass): 12 ± 10.7% | inhibition at 200 µM (P. aeruginosa ATCC 9027; 200 µM, read-out: Average inhibition %, planktonic cells turbidity): 13.7 ± 14.3% | Average inhibition %, biofilms viability (A. baumannii NCTC 13423; 10 µM): 0 ± 0% | Average inhibition %, planktonic cells viability (A. baumannii NCTC 13423; 10 µM): 11 ± 1.5% | Average inhibition %, biofilms viability (A. baumannii NCTC 13423; 15 µM): 1 ± 1.5% | Average inhibition %, planktonic cells viability (A. baumannii NCTC 13423; 15 µM): 8.7 ± 2.5% | Average inhibition %, biofilms viability (A. baumannii NCTC 13423; 25 µM): 2.8 ± 2.6% | Average inhibition %, planktonic cells viability (A. baumannii NCTC 13423; 25 µM): 7.8 ± 6.9% | Average inhibition %, biofilms viability (A. baumannii NCTC 13423; 50 µM): 7.1 ± 0.8% | Average inhibition %, planktonic cells viability (A. baumannii NCTC 13423; 50 µM): 0 ± 0% | inhibition at 10 µM (A. baumannii NCTC 13423; [5]): 0% | inhibition at 10 µM (A. baumannii NCTC 13423; [6]): 0% | inhibition at 15 µM (A. baumannii NCTC 13423; [7]): 0.8 ± 1.4% | inhibition at 15 µM (A. baumannii NCTC 13423; [8]): 0% | inhibition at 25 µM (A. baumannii NCTC 13423; [9]): 0% | inhibition at 25 µM (A. baumannii NCTC 13423; [10]): 0% | inhibition at 50 µM (A. baumannii NCTC 13423; [11]): 4.8 ± 4.9% | inhibition at 50 µM (A. baumannii NCTC 13423; [12]): 0%
